The values below come from publication PMC12523642, “Unveiling the Bioactive Potential of Allium colchicifolium Boiss Bulb Flavonoids: Anti-cancer Activities, and Computational Exploration of Anti-angiogenic Mechanisms” (Iranian Journal of Pharmaceutical Research : IJPR, 2025).

Values after ≈ are worked out from the molar mass of the structure shown. Like-named read-outs stand apart in the source and are kept apart here.

For data set [1], the system named is VEGF receptor-2 and angiogenesis cellular signaling pathways. As to conditions: 25 µM; cited from earlier work.
Data set [2] has as its system PC3 (human prostate adenocarcinoma). The data set can be described thus: MTT cytotoxicity assay on PC3. The data set is classed as cell-based. As to conditions: 24 h, mean ± SD, read-out: Cytotoxic activity IC50, PC3. The protocol:
(§1) Cancer cell lines, including PC3 NCBI-C427 (human prostate adenocarcinoma), HeLa NCBI-C115 (human cervix carcinoma), MCF7 NCBI-C135 (human breast adenocarcinoma), and a normal cell line, human umbilical vein endothelial cell (HUVEC) NCBI-C554, were purchased from the Pasteur Institute of Tehran, Iran. Cells were cultured and maintained in Dulbecco’s modified Eagle’s medium (DMEM) supplemented with 10% fetal bovine serum (FBS) and 2% (v/v) streptomycin-penicillin in a humidified incubator with a 5% CO2 atmosphere at 37°C. Passages 2 to 3 of the cells were utilized for the cytotoxicity assay ([18]).
(§2) The MTT assay was used to determine the cytotoxic activities of the MeOH extract, isolated compounds (1 - 3), and doxorubicin (as a positive control) on human cancer cell lines. For the MTT assay, concentrations (1, 5, 10, 25, 50, 100 µg) of the samples were prepared in DMEM as diluent and incubated with cells (10^5 cells/mL) for 24 hours in 96-well plates. Then, the MTT powder was added to the wells and incubated for 4 hours at 37°C. Absorbance was measured at 570 nm using a microplate reader. The experiment was performed in triplicate, and cell viability percentages were calculated by the following equation: […]. The negative control was untreated cells. The cytotoxicity IC50 value for the extracts was defined as the concentration that reduces 50% cell viability ([19]).
For orientation: Tetrazolium assays rely on reduction of a dye to a coloured formazan, in cell work by metabolically active cells.

In data set [3] the test system is MCF7 (human breast adenocarcinoma). The data set can be described thus: MTT cytotoxicity assay on MCF-7. Type of data set: cell-based. As to conditions: MCF7, 24 h, mean ± SD, read-out: Cytotoxic activity IC50, MCF-7. The protocol: as §1, §2
Data set [4] deals with HeLa (human cervix carcinoma). The experiment in a line: MTT cytotoxicity assay on HeLa. The data set is classed as cell-based. Conditions: 24 hours, mean ± SD, read-out: Cytotoxic activity IC50, HeLa. As for the experimental part: as §1, §2
A short description of data set [5]: MTT cytotoxicity assay on HUVEC (normal cell line). The data set is classed as cell-based. Conditions: human, HUVEC (umbilical vein endothelial cells), mean ± SD, read-out: Cytotoxic activity IC50, HUVEC. As for the experimental part:
as §1, §2

Data set [6] relates to chicken chorioallantoic membrane (CAM). The data set can be described thus: Chick chorioallantoic membrane (CAM) anti-angiogenesis assay. Type of data set: in vivo. As to conditions: Gallus gallus, read-out: Anti-angiogenesis IC50 (50% inhibition of angiogenesis). As for the experimental part:
The anti-angiogenesis activities of the MeOH extract and isolated compounds ([1]-[3]) were evaluated using the chicken chorioallantoic membrane (CAM) model. Briefly, pathogen-free fertilized chicken eggs were purchased from Baharan Parent Stock Company, Kermanshah, Iran, and incubated at 37°C with 75% humidity for 7 days. Then, square windows (1 cm^2) were opened in the outer shell of the eggs, and different concentrations of samples were loaded. After 48 hours, the zones around the discs were photographed with a digital camera and macroscopically assayed for neovascular zones of CAM in each treatment group. The effects on local vessel density within a 10 cm^2 area surrounding the windows were measured in each treatment group using AngioSoft software (V, 2019) ([12], [13]). The study was done in triplicate for each experimental group (8 eggs). The anti-angiogenesis IC50 value for the extracts was reported as the concentration that reduces 50% angiogenesis compared to the blank disk.
The results of the anti-angiogenesis activities of isolated flavonoids (1 - 3) and the MeOH extract of A. colchicifolium bulbs on the CAM model of angiogenesis are shown in Figure 2A and B. The IC50 of each compound was considered as the concentration that caused 50% inhibition of angiogenesis in a 100 mm^2 area surrounding each sample disc compared to the negative control disc (distilled water).

The subject of data set [7] is mice VEGF serum levels. Also on record: method as in PMID 23867787. Conditions: 20 mg/kg; by reducing mice VEGF serum levels; cited from earlier work.
Data set [8] concerns CAM model. As to conditions: 10 nM; by blocking matrix metalloproteinase-2 gene expression; cited from earlier work.
[9] abbreviates: CAM model, 48 hours, compared to negative control disc.

With `COc1ccc(-c2oc3c(C)c(OC)cc(OC)c3c(=O)c2OC)cc1OC` [8-methylquercetin-3,5,7,3',4'-pentamethyl ether, reference compound], the Anti-angiogenesis activities entry in data set [1] is recorded as “demonstrated anti-angiogenesis activities”.
What is called IC50 is the concentration at which inhibition is half-maximal. For the molecule `C[C@@H]1O[C@@H](OC[C@H]2O[C@@H](Oc3c(-c4ccc(O)c(O)c4)oc4cc(O)cc(O)c4c3=O)[C@H](O)[C@@H](O)[C@@H]2O)[C@H](O)[C@H](O)[C@H]1O` [Compound 1, quercetin 3-O-rutinoside], the concentration for half-maximal inhibition (IC50) in data set [2] worked out at 2.96 ± 0.16 µg/mL (≈ 4.85 µM); in data set [3], 3.16 ± 0.3 µg/mL (≈ 5.18 µM); in data set [4], 6.95 ± 0.32 µg/mL (≈ 11.4 µM); in data set [6] (setting [9]), 7.12 ± 0.1 µg/mL (≈ 11.7 µM). For the same molecule, the concentration for half-maximal inhibition (IC50) at 24 h in data set [5] turned out to be 9.35 ± 0.8 µg/mL (≈ 15.3 µM). In addition, the Inhibition of angiogenesis result in data set [7] is “inhibited angiogenesis”.
Regarding `COc1cc(-c2oc3cc(O)cc(O)c3c(=O)c2O[C@@H]2O[C@H](CO)[C@@H](O)[C@H](O)[C@H]2O)ccc1O` [Compound 2, isorhamnetin 3-O-glucoside], the IC50 in data set [2] turned out to be 1.72 ± 0.02 µg/mL (≈ 3.6 µM); in data set [3] it was 2.58 ± 0.21 µg/mL (≈ 5.39 µM); in data set [4] it was 8.43 ± 0.32 µg/mL (≈ 17.6 µM); in data set [6] (setting [9]), 6 ± 0.21 µg/mL (≈ 12.5 µM). In data set [5], the IC50 at 24 h worked out at 9.96 ± 0.37 µg/mL (≈ 20.8 µM).
As for `O=c1c(O)c(-c2ccc(O)c(O)c2)oc2cc(O)cc(O)c12` [Compound 3, quercetin], the IC50 in data set [2] is at most 3 µg/mL; in data set [3], at most 3 µg/mL; in data set [4], 6.17 ± 0.13 µg/mL (≈ 20.4 µM); in data set [6] (48 h) it was 5.3 ± 0.3 µg/mL (≈ 17.5 µM). In addition, the half-maximal inhibitory concentration (IC50) at 24 h in data set [5] turned out to be 7.23 ± 0.29 µg/mL (≈ 23.9 µM). In data set [8], the “Anti-angiogenesis on the CAM model” value is listed as “exhibited anti-angiogenesis”. In addition, in data set [1], the Anti-angiogenesis activities result is “demonstrated anti-angiogenesis activities”.
On to `COc1cccc2c1C(=O)c1c(O)c3c(c(O)c1C2=O)C[C@@](O)(C(=O)CO)C[C@@H]3O[C@H]1C[C@H](N)[C@H](O)[C@H](C)O1` [Doxorubicin, doxorubicin, reference compound], for which the 50% inhibitory concentration (IC50) worked out at 0.051 ± 0.004 µg/mL (≈ 0.0938 µM) in data set [2], 0.034 ± 0.01 µg/mL (≈ 0.0626 µM) in data set [3] and 0.066 ± 0.007 µg/mL (≈ 0.121 µM) in data set [4]. Also, the IC50 at 24 h in data set [5] worked out at 0.045 ± 0.006 µg/mL (≈ 0.0828 µM).
